Measured values as given in patent US9499464B2, “Opsin-binding ligands, compositions and methods of use” (priority 2011, dated 2016).

The compounds below were run on P23H opsin (assay: Rhodopsin purification and regeneration (P23H cells treated with compound, regenerated with 9-cis-retinal, 480-500 nm absorbance)). Conditions: FIG. 1; P23H opsin treated with 20 µM during mutant protein production, relative to vehicle (DMSO) alone.

`CC(=O)/C=C/C1=C(C)CCCC1(C)C` [β-ionone, reference compound] was tested, and the “regeneration of 500 nm absorbing pigment upon treatment with retinal” value was “increase”.

Same assay, conditions: P23H cells, compound concentration 10 μM, 48 hours, regeneration with 9-cis-retinal (20 μM)

In order of falling “Fold Increase Over Control (480-500 nm absorbance as fold increase over the DMSO control)” value:
1. CC(C)C1=CC(=O)[C@H]2C(C)(C)CCC[C@@]12C (racemic) [Compound 29, (±)-(3aR,7aS)-3-isopropyl-3a,7,7-trimethyl-3a,4,5,6,7,7a-hexahydro-1H-inden-1-one]  2.4 fold
2. CC1(C)CCC[C@@]2(C)C(C3CC3)=CC(=O)[C@@H]12 (racemic) [Compound 44, (±)-(3aR,7aS)-3-cyclopropyl-3a,7,7-trimethyl-3a,4,5,6,7,7a-hexahydro-1H-inden-1-one]  2.2 fold
3. CCC1=CC(=O)[C@H]2C(C)(C)CCC[C@@]12C (racemic) [Compound 34, (±)-(3aR,7aS)-3-ethyl-3a,7,7-trimethyl-3a,4,5,6,7,7a-hexahydro-1H-inden-1-one]  2.2 fold
4. CC1(C)CCC[C@@]2(C)C=C[C@@H](O)[C@@H]12 (racemic) [Compound 37, (±)-(1R,3aS,7aS)-3a,7,7-trimethyl-3a,4,5,6,7,7a-hexahydro-1H-inden-1-ol]  1.8 fold
5. CC1(C)CCCC2(C)CC(=NO)C=C12 (centres unmarked) [Compound 30, 4,4,7a-trimethyl-5,6,7,7a-tetrahydro-1H-inden-2(4H)-one oxime]  1.8 fold
6. CON=C1C=C(C(C)C)[C@]2(C)CCCC(C)(C)[C@H]12 (racemic) [Compound 51, (±)-(3aR,7aS)-3-isopropyl-3a,7,7-trimethyl-3a,4,5,6,7,7a-hexahydro-1H-inden-1-one O-methyl oxime]  1.7 fold
7. CC1=CC(=O)[C@H]2C(C)(C)CCC[C@@]12C (racemic) [Compound 1, (±)-(3aR,7aS)-3,3a,7,7-tetramethyl-3a,4,5,6,7,7a-hexahydro-1H-inden-1-one]  1.7 fold
8. CC1(C)CCC[C@@]2(C)C(=O)CC[C@@H]12 (racemic) [Compound 5, (±)-(3aS,7aR)-4,4,7a-trimethyloctahydro-1H-inden-1-one]  1.7 fold
9. CC1(C)CCCC2CC(=O)C=C21 (centres unmarked) [Compound 53, 4,4-dimethyl-5,6,7,7a-tetrahydro-1H-inden-2(4H)-one]  1.7 fold

Same assay, conditions: P23H cells, compound concentration 20 μM, 48 hours, regeneration with 9-cis-retinal (20 μM)

In order of rising “Fold Increase Over Control (480-500 nm absorbance as fold increase over the DMSO control)” value:
1. CC(C)[C@H]1C(=O)C=C2[C@H]1CCCC2(C)C (racemic) [Compound 61, (±)-(1R,7aS)-1-isopropyl-4,4-dimethyl-5,6,7,7a-tetrahydro-1H-inden-2(4H)-one]  1.8 fold
2. CC1(C)CCC[C@@]2(C)C=C(CO)C[C@@H]12 (racemic) [Compound 22, (±)-((3aS,7aS)-3a,7,7-trimethyl-3a,4,5,6,7,7a-hexahydro-1H-inden-2-yl)methanol]  1.8 fold
3. CC1=C(C)[C@H]2[C@H](CCCC2(C)C)[C@@H]1O (racemic) [Compound 72, (±)-(1S,3aS,7aS)-2,3,4,4-tetramethyl-3a,4,5,6,7,7a-hexahydro-1H-inden-1-ol]  1.9 fold
4. CN1CC2=C(C1=O)C(C)(C)CCC2 [Compound 13, 2,7,7-trimethyl-2,3,4,5,6,7-hexahydro-1H-isoindol-1-one]  2.2 fold
5. CC1(C)CCC[C@@]2(C)CC(=NO)C[C@@H]12 (racemic) [Compound 62, (±)-(3aS,7aS)-3a,7,7-trimethylhexahydro-1H-inden-2(3H)-one oxime]  2.3 fold
6. CC1(C)CCC[C@@]2(C)CC(O)C[C@@H]12 (mixture of isomers) [Compound 63, (±)-(3aS,7aS)-3a,7,7-trimethyloctahydro-1H-inden-2-ol]  2.3 fold
7. CC(=O)/C=C/C1=C(C)CCCC1(C)C [β-ionone, reference compound]  2.4 fold
